Results: ChEMBL document CHEMBL3046391, “Acute toxicity and sublethal effects of methoxyfenozide and thiodicarb on survival, development and reproduction of Helicoverpa armigera (Lepidoptera: Noctuidae)” (2013)
≈ marks a conversion by molar mass, not a printed value.

Experiments:
Format in all cases: functional
Helicoverpa armigera [1] = experiment: Insecticidal activity against third-instar larval stage of Helicoverpa armigera fed with artificial diet containing compound assessed as increase in larval development time at LC30 concentration incubated for 24 hr
Helicoverpa armigera [2] = experiment: Insecticidal activity against Helicoverpa armigera assessed as pupal weight at LC30 concentration treated during third-instar larval stage for 24 hr (reference value: 311 +/-9 mg)
Helicoverpa armigera [3] = experiment: Insecticidal activity against Helicoverpa armigera adults emerged from compound-treated third-instar larval stage assessed as decrease in longevity rate at LC30 concentration; set-up: scale not given: the % may be the effect or the level left
Helicoverpa armigera [4] = experiment: Insecticidal activity against Helicoverpa armigera fed with artificial diet containing compound assessed as mortality at LC30 concentration measured at 24 hr intervals beginning at 24 hr after initial drug exposure
Helicoverpa armigera [5] = experiment: Insecticidal activity against Helicoverpa armigera adults emerged from compound-treated third-instar larval stage assessed as decrease in fecundity rate at LC30 concentration; set-up: scale not given: the % may be the effect or the level left
Helicoverpa armigera [6] = experiment: Insecticidal activity against third-instar larval stage of Helicoverpa armigera fed with artificial diet containing compound assessed as mortality measured at 24 hr intervals beginning at 24 hr after initial drug exposure; details: for LC50: Helicoverpa armigera, Instar larval stage, 24 h
Helicoverpa armigera [7] = experiment: Insecticidal activity against Helicoverpa armigera pupae assessed as increase in pupal development time at LC30 concentration treated during third-instar larval stage for 24 hr
Helicoverpa armigera [8] = experiment: Insecticidal activity against third-instar larval stage of Helicoverpa armigera fed with artificial diet containing compound assessed as mortality at LC30 concentration measured at 24 hr intervals beginning at 24 hr after initial drug exposure

Row | Structure (SMILES) | Time (Helicoverpa armigera [1]) [days] | Activity (Helicoverpa armigera [2]) [mg] | Activity (Helicoverpa armigera [3]) [%] | mortality (Helicoverpa armigera [4]) [%] | Activity (Helicoverpa armigera [5]) [%] | LC30 (Helicoverpa armigera [6]) [ppm] | LC90 (Helicoverpa armigera [6]) [ppm] | LC50 (Helicoverpa armigera [6]) [µg/mL] | Time (Helicoverpa armigera [7]) [days] | mortality (Helicoverpa armigera [8]) [%]
1 | COc1cccc(C(=O)NN(C(=O)c2cc(C)cc(C)c2)C(C)(C)C)c1C [METHOXYFENOZIDE] | 2.1 | 253 | 27.5 | 32 | 35 | 148 | 560 | 218 (≈ 592 µM) | 2.3 | 32
2 | CS/C(C)=N\OC(=O)N(C)SN(C)C(=O)O/N=C(\C)SC [THIODICARB] | 5.3 | 294 | 23 | 20 | 30 | 550 | 1987 | 798 (≈ 2250 µM) | 0.5 | 20
